Measured values as given in patent publication US6896914B2, “Method for normalizing insulin levels” (priority 2001, dated 2005).

Columns and labels:
[1] = test system: overweight male human subjects; experiment: Example 1: double-blind study of enteric coated oral d-mannoheptulose with 1-glutamic acid, serum insulin, glucose and C-peptide; type: in vivo
Description: A six-week double-blind study would also determine if combining an amino acid (i.e., 1-glutamic acid) and enteric coating would enhance the bioavailability and efficacy of oral d-mannoheptulose and prevent diarrhea. The amount of amino acid used was 500 mg per dose.
Thirteen healthy male human subjects, aged thirty-seven to fifty-seven, each at least forty pounds overweight, underwent screening blood testing. The Automated Chemistry Profile used included the following measurements: Serum Glucose, BUN, Creatinine, BUN/Creatinine Ratio, Uric Acid, Sodium, Potassium, Chloride, Carbon Dioxide, Calcium, Phosphorous, Total Protein, Albumin, Globulin, A/G Ratio, Total Bilirubin, Alkaline Phosphatase, LDH, AST, ALT, and Iron. A Lipid Profile, and CBC with Differential were also measured. Tests specific to this study included C-Peptide, Serum Insulin, and Hemoglobin A1c.
Subjects were randomly placed into two groups: “A” (Purple Caps) and “B” (Green Caps). Neither subject nor investigator knew which dosage forms were active and which were placebo. Once a week for three weeks, all subjects came to a local medical office while fasting and, stayed for a period of at least four hours. Blood was drawn from each subject in the fasting state, immediately following a high sugar meal, and at one and three hours after taking 500 mg. of MH. Additionally, fasting blood levels of glucose and insulin were drawn two times a week.
The intent was to cross over the patient test groups at the end of three weeks. But, the response of the group receiving active substance was so obvious that any attempt to continue the double-blind methodology in secrecy was pointless. The active compound group not only stabilized their eating patterns, but also experienced considerable weight loss.
At the end of the third week, the code was broken, confirming that the subjects with the dramatic response were getting the active oral dosage form. Thereafter, all subjects were given the same active dosage form.

[2] = test system: overweight hyperinsulinemic male and female subjects; experiment: Example 2: placebo-controlled crossover study of enteric coated d-manno-heptulose capsules, insulin, glucose, weight; type: in vivo, human
Description: All study subjects had serum insulin, blood glucose, and C-peptide levels drawn. The relationship of insulin to glucose was determined by the following formula: Glucose (mg %)×0.41−34=Insulin Thus: 83 mg % glucose×0.41=34.03−34=0.03 or, insulin vanishes from the blood at 83 mg %. Subjects were male and females under the age of 50, who were at least 45 pounds overweight according to the body mass index (BMI). […] Sixteen subjects were given 500 mg of d-manno-heptulose (MH) in enteric coated capsules. Sixteen subjects were given placebo in similar appearing capsules. All subjects received doses four times a day, which were orally ingested in the presence of the investigator. Insulin and glucose levels were drawn one hour after ingesting capsules, two hours afterwards, and four hours afterwards. C-peptide levels were measured once a day. Patients were asked to keep meal logs, recording everything that they ingested by mouth, on a daily basis, for the duration of the study. The subjects and investigators were both blind to the group receiving active medication. At the end of three weeks, the test groups were switched. The group receiving active dosage forms was switched with the group receiving placebo. The initial time period was designed to be three weeks. However, four patients dropped out because they found the schedule too demanding. Nine of the control group patients expressed a desire to quit, and four were allowed to withdraw. The remaining twenty-four subjects completed the six week period.

Hexokinase = details: cited from earlier work
mammals including man = details: cited from earlier work
obese patients = details: cited from earlier work
[3] = twelve active medication subjects, first three weeks

## O=C(CO)[C@@H](O)[C@@H](O)[C@H](O)[C@H](O)CO [MH, d-mannoheptulose]
[1]; all study participants
  weight loss and carbohydrate craving reported by participants: significant weight-loss and reduction in carbohydrate craving
[1]; end of study vs baseline at beginning of study
  average fasting serum insulin lower than baseline: 26.41%
[1]; end of study vs baseline, two subjects
  average reduction in C-peptide levels: 43%
[1]; end of study vs baseline, called insignificant
  fasting serum glucose higher than baseline: 1.52%
[1]; enterically coated MH
  lowering elevated serum insulin: effective short-term and long-term
  nausea or diarrhea: not one instance of nausea or diarrhea was reported
[1]; hematological or symptomatic, any subject
  indications of toxicity: no hematological or symptomatic indications of toxicity
[1]; one study participant
  glycemic state of participant hypoglycemic at entry: became normalglycemic
[1]; three hours after one dose of MH, same-day glucose challenge, average
  serum insulin lower than baseline fasting insulin: 22.4%
[1]; three hours after one dose of MH, same-day glucose challenge, called insignificant
  average glucose increase: 1.92%
[2]; after active medication for three days, all subjects of A group
  Fasting insulin: 0
[2]; after administration
  time to begin lowering plasma insulin levels: two
[2]; all MH recipients while on medication
  tolerance for high-sugar foods: diminished tolerance for high-sugar foods
[2]; control group changed from placebo to MH, middle of second day, after six doses
  Fasting insulin: 0
[2]; control group changed from placebo to MH, over twenty-one days
  average per day weight loss: 2.2 lbs.
[2]; original twelve active patients
  average weight loss after switch to placebo: 0.7 lbs. per day
[2]; original twelve active patients, on average
  duration of insulin suppressing action after switch to placebo: eleven
[2]; [3]
  Average weight loss: 1.6 lbs. per day per subject
  greatest weight loss: 1.9 lbs. per day
  lowest weight loss: 1.2 lbs. per day
[2]; two hours after administration of MH, A group, twelve subjects
  average decrease of insulin levels: 81%
Hexokinase
  inhibition of hexokinase: inhibits hexokinase in a predominantly competitive manner
Mammals including man; mammals including man
  effect on insulin release: lower fasting and glucose stimulated peak insulin release
Mammals including man; oral
  absorption on oral administration: poor absorption on oral administration
  side effects on oral administration: unpleasant side effects (e.g., diarrhea, nausea)

## CC1=NS(=O)(=O)c2cc(Cl)ccc2N1 [diazoxide]
Obese patients
  effect on blood pressure: drops blood pressure dangerously
  effect on insulin levels: lowers insulin levels
